Laboratory results: publication PMC9246256, “Structure-based optimization of type III indoleamine 2,3-dioxygenase 1 (IDO1) inhibitors” (Journal of Enzyme Inhibition and Medicinal Chemistry, 2022)
pIC50: −log10 of the molar value. Read-outs that look alike come from different tables or passages of the source.

Key:
HEK 293 T cells [1] = conditions: previously determined, 200 µM, cited from earlier work
murine IDO2 = test system: murine IDO2; set-up: method as in PMID 27469130; conditions: murine IDO2, cellular; cited from earlier work
hIDO1 [2] = biological target: T1, hIDO1 (Homo sapiens, UniProt P14902); conditions: previously determined, 200 µM, cited from earlier work
T1 construct: The full ORF of hIDO1 was cloned into the mammalian expression vector pcDNA6/myc-His; myc-His (vector-encoded); host or cells: HEK 293 T

[3] = biological target: T2, purified recombinant IDO1 (Homo sapiens, UniProt P14902); assay: Enzymatic IDO1 inhibition assay (ascorbate/methylene blue reduction system, HPLC detection of kynurenine); type: biochemical; conditions: for pIC50: enzymatic; for LE [kcal/mol/HA]: ligand efficiency, LE = -RT log(IC50)/number of heavy atoms, from enzymatic IC50
T2 construct: Full-length human IDO1 gene was cloned into the pET-28a vector; inferred from pET-28a vector and HisTrap purification; made in house; host or cells: E. coli Rosetta (DE3)

HEK 293 T cells [4] = assay: Cell viability / cellular toxicity (DAPI staining, cytometry); type: cell-based, human; conditions: compound 200 µM, 7 h
Description: (§1) We tested the cellular hIDO1 inhibitory activity and toxicity of 30 active compounds at a single concentration (Figure 6 and Table 8). As some of the aniline derivatives reacted with Ehrlich’s reagent (p-dimethylaminobenzaldehyde, p-DMAB) used to quantify kynurenine, the kynurenine content of these samples was determined by HPLC. To be able to detect also weak inhibition, compounds were tested at the high concentration of 200 µM (Figure 6A and B, filled bars), except for less soluble compounds (52, 148, 149 and 153), which were tested at a concentration of 50 µM (Figure 6A and B, empty bars).
Following DMSO (negative control) or inhibitor treatments, apoptotic cells were detected by 4′,6-diamidino-2-phenylindole (DAPI) staining. Briefly, after 7 h of incubation, cells were washed with PBS, resuspended in PBS with 1 µg/mL DAPI and immediately analysed using a BD LSR II cytometer. A 405 nm laser with 450/50 nm bandpass filter was used to collect data.

hIDO1 [5] = biological target: T1, hIDO1; assay: Cellular hIDO1 inhibition (kynurenine production) in transiently transfected HEK 293 T cells; type: cell-based; conditions: HEK 293 T cells transfected with hIDO1; read-out: Cell. IC50 [ μ M] (SD)
hIDO1 [6] = biological target: T1, hIDO1; assay: as above; type: cell-based
Description: as §1
The cDNA encoding hIDO1 (NCBI, NM 0021464.3) was purchased from Origene as pCMV6-Entry vector (RC206592). The full ORF of hIDO1 was cloned into the mammalian expression vector pcDNA6/myc-His from Invitrogen. Human embryonic kidney 293 T (HEK 293 T) cells were transiently transfected with the plasmid construct encoding hIDO1. A 75 cm^2 flask containing HEK 293 T cells at a confluency of 70% was transfected with jetPEI DNA transfection reagent (Polyplus-transfection), according to manufacturer’s protocol. A total of 20 µg of pcDNA-IDO1 along with 5 µg of pcDNA-GFP plasmid were used for the transfection; GFP was used to evaluate transfection efficiency prior to the cellular assays. 16–18 h post-transfection the 293 T cells were detached with trypsin, centrifuged, and re-suspended in 25 mL of DMEM medium without phenol red, supplemented with penicillin and streptomycin, 10% foetal bovine serum and 1 mM pyruvate (Gibco). Subsequently, 100 µL of cells were distributed to each well of two 96-well round-bottom plates that had been pre-loaded with 100 µL DMEM and the small organic test molecule in DMSO (for a final DMSO concentration of 2%). DMEM medium contains 78 µM L-Trp and was supplemented with 500 µM of L-Trp. Cells transfected with hIDO1 were incubated for 7 h at 37 °C in a CO2 incubator. The reaction was stopped in its linear phase by adding trichloroacetic acid (TCA) to the medium at a final concentration of 4%. Plates were centrifuged for 15 min at 4,000 rpm. 100 µL of supernatant was added to 100 µL of 2% (w/v) DMAB in glacial acetic acid. After 10 min the absorbance was measured at a wavelength of 480 nm to detect kynurenine formation. Alternatively, kynurenine content was determined by HPLC as done for the enzymatic assay.

IDO1 = conditions: cited from earlier work
TDO = test system: TDO; set-up: method as in PMID 22616902; conditions: undetectable activity; cited from earlier work
[7] = L-Trp 100 µM, 0.01% Triton X-100, 5% DMSO, 20 min at room temperature, pH 6.5, duplicates, read-out: IC50 [ μ M] (SD)
[8] = ref 1 of Supporting Information (Röhrig et al. 2021)

T1 sequence (P14902 whole entry): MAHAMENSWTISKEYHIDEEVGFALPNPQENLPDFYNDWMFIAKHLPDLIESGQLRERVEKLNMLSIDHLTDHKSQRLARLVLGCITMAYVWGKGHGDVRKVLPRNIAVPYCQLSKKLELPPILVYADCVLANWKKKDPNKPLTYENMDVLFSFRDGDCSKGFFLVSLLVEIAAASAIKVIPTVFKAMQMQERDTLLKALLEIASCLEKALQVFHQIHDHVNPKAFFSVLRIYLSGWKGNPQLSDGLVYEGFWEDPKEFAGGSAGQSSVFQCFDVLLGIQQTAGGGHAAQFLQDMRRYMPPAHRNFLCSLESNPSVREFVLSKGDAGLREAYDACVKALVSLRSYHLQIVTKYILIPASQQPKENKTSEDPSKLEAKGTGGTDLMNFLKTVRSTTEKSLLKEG
T2 sequence (P14902 whole entry): as above

SMILES	pIC50 [3, 7]	LE [kcal/mol/HA] [3] [kcal/mol/HA]	Tox. [%] (HEK 293 T cells [4])	pIC50 (hIDO1 [5])	inhibition at 200 µM (hIDO1 [6]) [%]	further results
Clc1cccc(-c2cnn[nH]2)c1/C=C/C1CCCCC1 [Compound 42]	3.59	0.24				Tox. [%] (HEK 293 T cells [1]; ref 3 of Supporting Information (= main text ref 62)): 5%; pIC50 (murine IDO2): 3.96; Inh. [%] (hIDO1 [2]; ref 3 of Supporting Information (Röhrig et al. 2016)): 56%
Nc1cc(F)c(Br)cc1-c1nc[nH]n1 [Compound 144, 4-Bromo-5-fluoro-2-(1H-1,2,4-triazol-3-yl)aniline]	7.47	0.73	17 (2) %	7.47	100	melting point: 243 to 246 °C; pIC50 ([3]; read-out: enzymatic IC50): 7.47
Nc1ccc(F)cc1-c1nc[nH]n1 [Compound 143, 4-Fluoro-2-(1H-1,2,4-triazol-3-yl)aniline]	6.82	0.72	18 (0.5) %	6.60	86	
Nc1c(F)cccc1-c1nc[nH]n1 [Compound 140, 2-Fluoro-6-(1H-1,2,4-triazol-3-yl)aniline]	6.09	0.64	17 (3) %	5.92	100	
NC(=O)c1[nH]nnc1-c1ccc(Cl)cc1 [Compound 66, 4–(4-Chlorophenyl)-1H-1,2,3-triazole-5-carboxamide, reference compound]	3.10	0.28				pIC50 (IDO1; values of Panda and co-workers, not reproduced here, read-out: published IC50 values): 6.21
Oc1ccc(Cl)cc1-c1cnn[nH]1 [Compound 9]						Tox. [%] (HEK 293 T cells [1]; [8]): 4%; activities on TDO (TDO): > 100 µM; Inh. [%] (hIDO1 [2]; [8]): 100%
Clc1ccc(Nc2cnn[nH]2)cc1 [Compound 10, reference compound]	4.25	0.44				pIC50 (IDO1; read-out: IC50 value in the original publication): 4.95
